The record followed here is article PMC8011376 (Journal of the American Chemical Society, 2020).

Some results are limits rather than exact numbers.

What all share (assay): MIC determination, broth microdilution
One test relates to E. cloacae ATCC 13047. It counts as cell-based, Enterobacter cloacae.
Another test has as its system P. aeruginosa. It is filed as cell-based, Pseudomonas aeruginosa. Particulars: listed as measured MICs for polymyxin-supplemented assays.
Another test has as its system K. pneumoniae. It is filed as cell-based, Klebsiella pneumoniae. Particulars: listed as measured MICs for polymyxin-supplemented assays.
Another test has as its system E. coli DH5α. It counts as cell-based, Escherichia coli. Particulars: listed as measured MICs for polymyxin-supplemented assays.
The next test deals with A. baumannii. It is filed as cell-based, Acinetobacter baumannii. Particulars: listed as measured MICs for polymyxin-supplemented assays.

In the case of polymyxin, the MIC of polymyxin is more than 64 µg/mL with E. cloacae ATCC 13047 (E. cloacae ATCC 13047, strain not susceptible (note)); 2 µg/mL in the test on E. cloacae ATCC 13047 (E. cloacae, value in the list of measured MICs); 0.15 µg/mL in the test on P. aeruginosa; 0.15 µg/mL in the test with K. pneumoniae; 0.0625 µg/mL in the test with E. coli DH5α; 0.3 µg/mL in the test on A. baumannii.
